Results published in patent US8354419B2, “Benzimidazole analogues for the treatment or prevention of flavivirus infections” (Vertex Pharmaceuticals Incorporated, priority 2009, dated 2013).

Test system: HCV (Ib) RNA replication
Assay: Cell-based luciferase reporter HCV (1b) RNA replication assay (replicon cell lines Huh-7 5.2 and ET)
Design: species or system Hepatitis C virus
Conditions: Hepatitis C virus, Huh-7, 96 h, HCV 1b genotype replicon, luciferase readout, 4 days incubation; read-out: EC50_1b
How it was run: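 Compounds were tested at eleven concentrations in duplicate over 4 days at 37 °C, 5% CO2. The cells were luciferase-reporter HCV 1b replicon lines 5.2 (NS5A adaptive mutation) or ET (NS4B mutation). Luminescence of lysates was measured, and IC50s were derived by nonlinear curve fitting.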

SMILES	EC50 [nM]
CC[C@@H]1CC[C@@H](c2nc3cc(-c4ccc(-c5ccc6nc([C@@H]7CC[C@@H](CC)N7C(=O)[C@@H](NC(=O)OC)C(C)C)[nH]c6c5)cc4)ccc3[nH]2)N1C(=O)[C@@H](NC(=O)OC)C(C)C [Compound 24, ((S)-1-{(2R,5S)-2-Ethyl-5-[5-(4-{2-[(2S,5R)-5-ethyl-1-((S)-2-methoxycarbonylamino-3-methyl-butyryl)-pyrrolidin-2-yl]-1H-benzoimidazol-5-yl}-phenyl)-1H-benzoimidazol-2-yl]-pyrrolidine-1-carbonyl}-2-methyl-propyl)-carbamic acid methyl ester]	≤ 5
COC(=O)N[C@H](C(=O)N1CCC[C@H]1c1nc2cc(-c3ccc(-c4ccc5nc([C@@H]6CCCN6C(=O)[C@@H](NC(=O)OC)C(C)C)[nH]c5c4)c4c3OCO4)ccc2[nH]1)C(C)C [Compound 146]	≤ 5
COC(=O)N[C@H](C(=O)N1CCC[C@H]1c1nc2cc(-c3ccc(-c4ccc5nc([C@@H]6CCCN6C(=O)[C@@H](NC(=O)OC)C(C)C)[nH]c5c4)cc3C(=O)OC)ccc2[nH]1)C(C)C [Compound 181]	≤ 5
COC(=O)NCCN1CCC[C@H]1c1nc2cc(C#Cc3ccc4[nH]c([C@@H]5CCCN5CCNC(=O)OC)nc4c3)ccc2[nH]1 [Compound 151]	5 to 5000
COC(=O)N[C@H](C(=O)N1[C@@H]2C[C@@H]2C[C@H]1c1nc2cc(-c3ccc(-c4ccc5[nH]c([C@@H]6C[C@H]7C[C@H]7N6C(=O)[C@@H](NC(=O)OC)C(C)C)nc5c4)cc3)ccc2[nH]1)C(C)C [Compound 240]	≤ 5
COC(=O)N[C@H](C(=O)N1CCC[C@H]1c1nc2cc(C#Cc3ccc4nc([C@@H]5CCCN5C(=O)NC(C)C)[nH]c4c3)ccc2[nH]1)C(C)C [Compound 122]	≤ 5
COC(=O)N[C@H](C(=O)N1CCC[C@H]1c1nc2cc(-c3cnc(-c4ccc5[nH]c([C@@H]6CCCN6C(=O)[C@@H](NC(=O)OC)C(C)C)nc5c4)c(C)c3)ccc2[nH]1)C(C)C [Compound 43, Methyl N-[(1S)-1-[(2S)-2-[5-[5-[2-[(2S)-1-[(2S)-2-(methoxycarbonylamino)-3-methyl-butanoyl]pyrrolidin-2-yl]-1H-benzimidazol-5-yl]-3-methyl-2-pyridyl]-1H-benzimidazol-2-yl]pyrrolidine-1-carbonyl]-2-methyl-propyl]carbamate]	≤ 5
COC(=O)N[C@H](C(=O)N1CCC[C@H]1c1nc2cc(-c3ccc(-c4ccc5nc([C@@H]6CCCN6C(=O)[C@@H](NC(=O)OC)C(C)C)[nH]c5c4)cc3CF)ccc2[nH]1)C(C)C [Compound 220]	≤ 5
CCCCc1cc(-c2ccc3[nH]c([C@@H]4CCCN4C(=O)[C@@H](NC(=O)OC)C(C)C)nc3c2)sc1-c1ccc2[nH]c([C@@H]3CCCN3C(=O)[C@@H](NC(=O)OC)C(C)C)nc2c1 [Compound 157]	≤ 5
COC(=O)N[C@H](C(=O)N1CC(C)(C)C[C@H]1c1nc2cc(-c3cc4sc(-c5ccc6[nH]c([C@@H]7CC(C)(C)CN7C(=O)[C@@H](NC(=O)OC)C(C)C)nc6c5)cc4s3)ccc2[nH]1)C(C)C [Compound 325]	≤ 5
COC(=O)N[C@H](C(=O)N1CCC[C@H]1c1nc2cc(-c3cc4sc(-c5ccc6nc([C@@H]7CCCN7C(=O)[C@@H](NC(=O)OC)[C@@H](C)OC)[nH]c6c5)cc4s3)ccc2[nH]1)[C@@H](C)OC [Compound 199]	≤ 5
COC(=O)N[C@H](C(=O)N1CCCC[C@H]1c1nc2cc(C#Cc3ccc4[nH]c([C@@H]5CCCN5C(=O)[C@@H](NC(=O)OC)C(C)C)nc4c3)ccc2[nH]1)C(C)C [Compound 60]	≤ 5
COC(=O)N[C@H](C(=O)N1CCC[C@H]1c1nc2cc(-c3ccc(-c4ccc5nc([C@@H]6CCCN6C(=O)[C@@H](NC(=O)OC)[C@@H](C)OC)[nH]c5c4)c4ncoc34)ccc2[nH]1)[C@@H](C)OC [Compound 188]	≤ 5
COC(=O)N[C@H](C(=O)N1C[C@H](OC(C)(C)C)C[C@H]1c1nc2cc(-c3ccc(-c4ccc5[nH]c([C@@H]6C[C@@H](OC(C)(C)C)CN6C(=O)[C@@H](NC(=O)OC)C(C)C)nc5c4)cc3)ccc2[nH]1)C(C)C [Compound 25, ((S)-1-{(2S,4R)-4-tert-butoxy-2-[5-(4-{2-[(2S,4R)-4-tert-butoxy-1-((S)-2-methoxycarbonylamino-3-methyl-butyryl)-pyrrolidin-2-yl]-1H-benzoimidazol-5-yl}-phenyl)-1H-benzoimidazol-2-yl]-pyrrolidine-1-carbonyl}-2-methyl-propyl)-carbamic acid methyl ester]	≤ 5
CC(=O)N[C@H](C(=O)N1CCC[C@H]1c1nc2cc(C#Cc3ccc4[nH]c([C@@H]5CCCN5C(=O)[C@@H](NC(C)=O)C(C)C)nc4c3)ccc2[nH]1)C(C)C [Compound 96]	5 to 5000
COC(=O)N[C@@H](C)C(=O)N1CCC[C@H]1c1nc2cc(C#Cc3ccc4c(c3)N=C([C@@H]3CCCN3C(=O)C(c3ccccc3)N(C)C)C4)ccc2[nH]1 (some centres unmarked) [Compound 59]	≤ 5
COC(=O)N[C@H](C(=O)N1CCC[C@H]1c1nc2cc(-c3ccc(-c4ccc5[nH]c([C@@H]6CCCN6C(=O)[C@@H](NC(=O)OC)C(C)C)nc5c4)c4ncccc34)ccc2[nH]1)C(C)C [Compound 163]	≤ 5
COC(=O)N[C@H](C(=O)N1C[C@@H](C)C[C@H]1c1nc2cc(-c3ccc(-c4ccc5nc([C@@H]6C[C@@H](O)CN6C(=O)[C@H](NC(=O)OC)C(C)C)[nH]c5c4)cc3)ccc2[nH]1)C(C)C [Compound 246]	≤ 5

SMILES	EC50 [nM]
COC(=O)N(C)[C@H](C(=O)N1C[C@@H](C)C[C@H]1c1nc2cc(-c3ccc(-c4ccc5[nH]c([C@@H]6C[C@H](C)CN6C(=O)[C@H](C(C)C)N(C)C(=O)OC)nc5c4)c(C)c3)ccc2[nH]1)C(C)C [Compound 266]	≤ 5
COC(=O)N(C)[C@H](C(=O)N1C[C@@H](C)C[C@H]1c1nc2cc(-c3ccc(-c4ccc5[nH]c([C@@H]6C[C@H](C)CN6C(=O)[C@H](C(C)C)N(C)C(=O)OC)nc5c4)c4nsnc34)ccc2[nH]1)C(C)C [Compound 299]	≤ 5
CN1CCC[C@H]1C(=O)N1CCCC1c1nc2ccc(C#Cc3ccc4[nH]c([C@@H]5CCCN5C(=O)[C@@H]5CCCN5C)nc4c3)cc2[nH]1 (some centres unmarked) [Compound 66]	5 to 5000
COC(=O)N(C)[C@H](C(=O)N1C[C@@H](C)C[C@H]1c1nc2cc(-c3csc4c(-c5ccc6[nH]c([C@@H]7C[C@H](C)CN7C(=O)[C@H](C(C)C)N(C)C(=O)OC)nc6c5)csc34)ccc2[nH]1)C(C)C [Compound 290]	≤ 5
COC(=O)N[C@H](C(=O)N1CCC[C@H]1c1nc2cc(-c3ccc(-c4ccc5[nH]c([C@@H]6CCCN6C(=O)[C@@H](Nc6ncccn6)C(C)C)nc5c4)cc3)ccc2[nH]1)C(C)C [Compound 241]	≤ 5
CC[C@@H](C(=O)N1CCC[C@H]1c1nc2cc(-c3ccc(-c4ccc5nc([C@@H]6CCCN6C(=O)[C@H](CC)N(C)C(=O)OC)[nH]c5c4)c4c3OCO4)ccc2[nH]1)N(C)C(=O)OC [Compound 215]	≤ 5
COC(=O)N[C@H](C(=O)N1[C@@H](C)CC[C@H]1c1nc2cc(-c3cc(F)c(-c4ccc5[nH]c([C@@H]6CC[C@H](C)N6C(=O)[C@@H](NC(=O)OC)C(C)C)nc5c4)cc3F)ccc2[nH]1)C(C)C [Compound 314]	≤ 5
Cn1c([C@@H]2CCCN2)nc2cc(-c3ccc(-c4ccc5[nH]c([C@@H]6CCCN6)nc5c4)cc3)ccc21 [Compound 228]	> 5000
COC(=O)N[C@H](C(=O)N1CCC[C@H]1c1nc2cc(-c3ccc(-c4ccc5[nH]c([C@@H]6CCCN6C(=O)[C@@H](NC(=O)OC)C(C)C)nc5c4)c4c3OC(F)(F)O4)ccc2[nH]1)C(C)C [Compound 221]	≤ 5
COC(=O)NC(C(=O)N1CCCC1c1nc2cc(-c3ccc(-c4ccc5nc(C6CCCN6C(=O)C(NC(=O)OC)C(C)(C)C)[nH]c5c4)cc3)ccc2[nH]1)C(C)(C)C (centres unmarked) [Compound 190]	≤ 5
COC(=O)N[C@H](C(=O)N1CCC[C@H]1c1nc2cc(-c3ccc(-c4ccc5[nH]c([C@@H]6CCCN6C(=O)[C@@H](NC(=O)OC)[C@@H](C)OC)nc5c4)c(C)c3)ccc2[nH]1)[C@@H](C)OC [Compound 207]	≤ 5
COC(=O)N[C@H](C(=O)N1CCC[C@H]1c1nc2cc(-c3cc(C)c(-c4ccc5[nH]c([C@@H]6CCCN6C(=O)[C@@H](NC(=O)OC)C(C)C)nc5c4)s3)ccc2[nH]1)C(C)C [Compound 155]	≤ 5
COC(=O)NC(C(=O)N1CCC[C@H]1c1nc2ccc(-c3cnc(-c4cnc(-c5ccc6nc([C@@H]7CCCN7C(=O)[C@@H](NC(=O)OC)C(C)C)[nH]c6c5)n4C)n3C)cc2[nH]1)C(C)C (some centres unmarked) [Compound 201]	≤ 5
COC(=O)N[C@H](C(=O)N1CC(C)(C)C[C@H]1c1nc2cc(-c3ccc(-c4ccc5[nH]c([C@@H]6CC(C)(C)CN6C(=O)[C@@H](NC(=O)OC)C(C)C)nc5c4)cc3)ccc2[nH]1)C(C)C [Compound 298]	≤ 5
COC(=O)N(C)[C@H](C(=O)N1CCC[C@H]1c1nc2cc(C#Cc3ccc4nc([C@@H]5CCCN5C(=O)[C@H](C(C)C)N(C)C(=O)OC)[nH]c4c3)ccc2[nH]1)C(C)C [Compound 63]	≤ 5
COC(=O)N[C@H](C(=O)N1CC(F)(F)C[C@H]1c1nc2cc(-c3ccc(-c4ccc5nc([C@@H]6CC(F)(F)CN6C(=O)[C@@H](NC(=O)OC)C(C)C)[nH]c5c4)cc3)ccc2[nH]1)C(C)C [Compound 3, ((S)-1-{(S)-2-[5-(4-{2-[(S)-4,4-Difluoro-1-((S)-2-methoxycarbonylamino-3-methyl-butyryl)-pyrrolidin-2-yl]-1H-benzoimidazol-5-yl}-phenyl)-1H-benzoimidazol-2-yl]-4,4-difluoro-pyrrolidine-1-carbonyl}-2-methyl-propyl)-carbamic acid methyl ester]	≤ 5
COC(=O)N[C@H](C(=O)N1CCC[C@H]1c1nc2cc(-c3ccc(-c4ccc5nc([C@@H]6CCCN6C(=O)[C@@H](NC(=O)OC)C(C)C)[nH]c5c4)cc3OC)ccc2[nH]1)C(C)C [Compound 8, ((S)-1-{(S)-2-[5-(2-Methoxy-4-{2-[(S)-1-((S)-2-methoxycarbonylamino-3-methyl-butyryl)-pyrrolidin-2-yl]-1H-benzoimidazol-5-yl}-phenyl)-1H-benzoimidazol-2-yl]-pyrrolidine-1-carbonyl}-2-methyl-propyl)-carbamic acid methyl ester]	≤ 5
